The values that follow come from patent US7592366B2, “Therapeutic compounds” (Allergan, Inc., priority 2006, dated 2009).

pEC50, pKi: −log10 of the molar value.

For one experiment, the target named is EP2 (Homo sapiens, UniProt P43116). In words: cAMP assay, EP2. The class given is cell-based. Also on record: expressed in transfected cells; host or cells: HEK-EBNA. Conditions: HEK-EBNA cells expressing EP2. How it is done:
A 384-well drug plate was prepared to contain 6 test compounds, PGE2 and cAMP in 16 serial dilutions in triplicate, using a Biomek station. HEK-EBNA cells expressing a target PG receptor subtype (EP2 or EP4) were suspended in a stimulation buffer (HBSS, 0.1% BSA, 0.5 mM IBMX and 5 mM HEPES, pH 7.4) in a density of 10^4 cells/5 μl. The reaction was initiated by mixing 5 μL drug dilutions with 5 μl of HEK-EBNA cells in a well, carried out for 30 min at room temperature, and followed by the addition of 5 μl anti-cAMP acceptor beads in the control buffer with Tween-20 (25 mM NaCl, 0.03% Tween-20, 5 mM HEPES, pH7.4). After 30 min in the dark at room temperature, the mixtures were incubated with 15 μl biotinylated-cAMP/strepavidin donor beads in Lysis/Detection buffer (0.1% BSA, 0.3% Tween-20 and 5 mM HEPES, pH7.4) for 45 min at the room temperature. Fluorescence changes were read using a Fusion-alpha HT microplate reader.
A general note: Changes in cAMP serve as a functional read-out for many G protein-coupled receptors.

A further experiment has as its target T1, hEP2/Gqs5 (Homo sapiens, UniProt P43116).
T1 construct: expressed in transfected cells; host or cells: HEK-293(EBNA)
In words: FLIPR calcium signal, EP2. The class given is cell-based. Conditions: HEK-293(EBNA) cells. How it is done: (§1) HEK-293(EBNA) cells, stably expressing one type or subtype of recombinant human prostaglandin receptors (prostaglandin receptors expressed: hDP/Gqs5; hEP1; hEP2/Gqs5; hEP3A/Gqi5; hEP4/Gqs5; hFP; hIP; hTP), were cultured in 100 mm culture dishes in high-glucose DMEM medium containing 10% fetal bovine serum, 2 mM l-glutamine, 250 μg/ml geneticin (G418) and 200 μg/ml hygromycin B as selection markers, and 100 units/ml penicillin G, 100 μg/ml streptomycin and 0.25 μg/ml amphotericin B.
(§2) Cells were seeded at a density of 5×10^4 cells per well in Biocoat® Poly-D-lysine-coated black-wall, clear-bottom 96-well plates (Becton-Dickinson) and allowed to attach overnight in an incubator at 37° C. Cells were then washed two times with HBSS-HEPES buffer (Hanks Balanced Salt Solution without bicarbonate and phenol red, 20 mM HEPES, pH 7.4) using a Denley Cellwash plate washer (Labsystems). After 45 minutes of dye-loading in the dark, using the calcium-sensitive dye Fluo-4 […] at a final concentration of 2 μM, plates were washed four times with HBSS-HEPES buffer to remove excess dye leaving 100 μl in each well. Plates were re-equilibrated to 37° C. for a few minutes.
(§3) Cells were excited with an Argon laser at 488 nm, and emission was measured through a 510-570 nm bandwidth emission filter (FLIPR™, Molecular Devices, Sunnyvale, Calif.). Drug solution was added in a 50 μl volume to each well to give the desired final concentration. The peak increase in fluorescence intensity was recorded for each well. On each plate, four wells each served as negative (HBSS-HEPES buffer) and positive controls (standard agonists: BW245C (hDP); PGE2 (hEP1; hEP2/Gqs5; hEP3A/Gqi5; hEP4/Gqs5); PGF2α (hFP); carbacyclin (hIP); U-46619 (hTP), depending on receptor). The peak fluorescence change in each drug-containing well was then expressed relative to the controls.
(§4) Compounds were tested in a high-throughput (HTS) or concentration-response (CoRe) format. In the HTS format, forty-four compounds per plate were examined in duplicates at a concentration of 10^−5 M. To generate concentration-response curves, four compounds per plate were tested in duplicates in a concentration range between 10^−5 and 10^−11 M. The duplicate values were averaged. In either, HTS or CoRe format each compound was tested on at least 3 separate plates using cells from different passages to give an n≧3.

In the next experiment the target is T2, hDP/Gqs5 (Homo sapiens, UniProt Q13258).
T2 construct: expressed in transfected cells; host or cells: HEK-293(EBNA)
T2 sequence (Q13258 1-359): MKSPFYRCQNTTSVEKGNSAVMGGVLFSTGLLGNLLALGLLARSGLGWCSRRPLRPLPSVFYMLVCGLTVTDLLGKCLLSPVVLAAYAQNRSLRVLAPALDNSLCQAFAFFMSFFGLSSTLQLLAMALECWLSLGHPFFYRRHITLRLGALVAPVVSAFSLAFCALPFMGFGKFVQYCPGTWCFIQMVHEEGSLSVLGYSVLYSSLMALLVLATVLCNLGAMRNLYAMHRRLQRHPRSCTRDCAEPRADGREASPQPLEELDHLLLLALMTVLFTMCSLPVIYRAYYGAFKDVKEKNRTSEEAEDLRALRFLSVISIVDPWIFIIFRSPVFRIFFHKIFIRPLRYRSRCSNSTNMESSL
As to the kind of experiment: FLIPR calcium signal, hDP. The class given is cell-based. Conditions: read-out: Other Receptors (EC50 in nM) hDP. On the procedure:
as §1, §2, §3, §4

The target of the next experiment is T3, EP4 receptors (Homo sapiens, UniProt P35408).
T3 construct: expressed in transfected cells; host or cells: HEK-293
As to the kind of experiment: Radioligand binding [3H]PGE2, EP4 Ki. Conditions: [3H]PGE2 competition, HEK-293 cells expressing EP4. How it is done:
HEK-293 cells stably expressing the human or feline FP receptor, or EP1, EP2, or EP4 receptors were washed with TME buffer, scraped from the bottom of the flasks, and homogenized for 30 sec using a Brinkman PT 10/35 polytron. TME buffer was added to achieve a final 40 ml volume in the centrifuge tubes (the composition of TME is 100 mM TRIS base, 20 mM MgCl2, […]; 10N HCl is added to achieve a pH of 7.4).
The cell homogenate was centrifuged at 19000 r.p.m. for 20 min at 4° C. using a Beckman Ti-60 rotor. The resultant pellet was resuspended in TME buffer to give a final 1 mg/ml protein concentration, as determined by Biorad assay. Radioligand binding competition assays vs. [^3H-]17-phenyl PGF2α (5 nM) were performed in a 100 μl volume for 60 min. Binding reactions were started by adding plasma membrane fraction. The reaction was terminated by the addition of 4 ml ice-cold TRIS-HCl buffer and rapid filtration through glass fiber GF/B filters using a Brandel cell harvester. The filters were washed 3 times with ice-cold buffer and oven dried for one hour.
[^3H-] PGE2 (specific activity 180 Ci mmol) was used as the radioligand for EP receptors. [^3H] 17-phenyl PGF2α was employed for FP receptor binding studies. Binding studies employing EP1, EP2, EP4 and FP receptors were performed in duplicate in at least three separate experiments. A 200 μl assay volume was used. Incubations were for 60 min at 25° C. and were terminated by the addition of 4 ml of ice-cold 50 mM TRIS-HCl, followed by rapid filtration through Whatman GF/B filters and three additional 4 ml washes in a cell harvester (Brandel). Competition studies were performed using a final concentration of 5 nM [^3H]-PGE2, or 5 nM [^3H] 17-phenyl PGF2α and non-specific binding determined with 10^−5M of unlabeled PGE2, or 17-phenyl PGF2α, according to receptor subtype studied.

T3 sequence (P35408 whole entry): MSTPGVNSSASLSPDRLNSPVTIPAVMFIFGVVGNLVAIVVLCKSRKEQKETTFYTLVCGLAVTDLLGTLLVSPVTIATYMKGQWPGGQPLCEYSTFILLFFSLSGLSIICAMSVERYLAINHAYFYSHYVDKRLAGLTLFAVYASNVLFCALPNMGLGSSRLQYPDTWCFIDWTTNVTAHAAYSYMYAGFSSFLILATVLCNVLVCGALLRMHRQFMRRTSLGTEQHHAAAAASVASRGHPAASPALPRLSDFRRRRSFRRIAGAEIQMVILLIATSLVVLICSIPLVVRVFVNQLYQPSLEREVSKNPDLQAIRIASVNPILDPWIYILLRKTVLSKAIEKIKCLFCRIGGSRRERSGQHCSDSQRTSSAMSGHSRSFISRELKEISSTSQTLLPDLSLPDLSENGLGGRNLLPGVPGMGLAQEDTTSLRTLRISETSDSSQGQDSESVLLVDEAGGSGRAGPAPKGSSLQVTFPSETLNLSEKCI
T1 sequence (P43116 whole entry): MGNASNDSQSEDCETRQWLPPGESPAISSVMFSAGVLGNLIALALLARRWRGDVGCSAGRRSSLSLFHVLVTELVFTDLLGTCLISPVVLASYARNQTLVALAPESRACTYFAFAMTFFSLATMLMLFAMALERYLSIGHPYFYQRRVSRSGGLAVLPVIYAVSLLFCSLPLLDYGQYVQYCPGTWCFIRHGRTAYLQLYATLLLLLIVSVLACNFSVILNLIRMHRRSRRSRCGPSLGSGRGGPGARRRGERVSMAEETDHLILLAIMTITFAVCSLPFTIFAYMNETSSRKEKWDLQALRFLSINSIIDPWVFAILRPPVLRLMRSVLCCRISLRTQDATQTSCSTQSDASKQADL
Chain of EP2 (P43116 whole entry): as above

Broadly, the pEC50 is the negative decadic logarithm of the EC50, by convention in mol/L. Broadly, the EC50 is the midpoint of the concentration-response curve. As usually defined, the pKi is −log10 of the Ki, conventionally taken in molar units. In the case of `O=C(O)c1ccc(CCC[C@@H]2[C@@H](CCc3cc(F)cc(F)c3)[C@H](O)C[C@H]2Cl)s1` [11d, 5-(3-((1R,2R,3R,5R)-5-chloro-2-(3,5-difluorophenethyl)-3-hydroxycyclopentyl)propyl)thiophene-2-carboxylic acid], the figures for the negative-log EC50 (pEC50) on EP2 and on hEP2/Gqs5 were 10.00 and 8.00, respectively. The concentration giving a half-maximal response (EC50) at hDP/Gqs5 came to 12700 nM. On EP4 receptors, this molecule showed a pKi of 5.59.

Take `O=C(O)c1ccc(CCC[C@@H]2[C@@H](CCc3cc(Cl)cc(Cl)c3)[C@@H](O)C[C@H]2Cl)s1` [compound 17, 5-(3-((1R,2R,3S,5R)-5-chloro-2-(3,5-dichlorophenethyl)-3-hydroxycyclopenty)propyl)thiophene-2-carboxylic acid]: the negative logarithm of the EC50 (pEC50) was 8.40 at EP2 and 6.30 at hEP2/Gqs5. For the same molecule, the EC50 at hDP/Gqs5 was over 10000 nM. The same molecule gave a negative-log Ki (pKi) on EP4 receptors of under 5.00.
